# Assay results taken from article PMC4543647, “Structural and Functional Analysis of BipA, a Regulator of Virulence in Enteropathogenic Escherichia coli” (The Journal of Biological Chemistry, 2015).
# Like-named read-outs stand apart in the source and are kept apart here.
# Tests used:
# BipA (TypA or YihK) [1] = target: T1, BipA (TypA or YihK) (Escherichia coli, UniProt P0DTT0); assay: isothermal titration calorimetry; crystal structure […] A; assay type: binding; settings: read-out: Ka (converted)
# T1 sequence (P0DTT0 whole entry): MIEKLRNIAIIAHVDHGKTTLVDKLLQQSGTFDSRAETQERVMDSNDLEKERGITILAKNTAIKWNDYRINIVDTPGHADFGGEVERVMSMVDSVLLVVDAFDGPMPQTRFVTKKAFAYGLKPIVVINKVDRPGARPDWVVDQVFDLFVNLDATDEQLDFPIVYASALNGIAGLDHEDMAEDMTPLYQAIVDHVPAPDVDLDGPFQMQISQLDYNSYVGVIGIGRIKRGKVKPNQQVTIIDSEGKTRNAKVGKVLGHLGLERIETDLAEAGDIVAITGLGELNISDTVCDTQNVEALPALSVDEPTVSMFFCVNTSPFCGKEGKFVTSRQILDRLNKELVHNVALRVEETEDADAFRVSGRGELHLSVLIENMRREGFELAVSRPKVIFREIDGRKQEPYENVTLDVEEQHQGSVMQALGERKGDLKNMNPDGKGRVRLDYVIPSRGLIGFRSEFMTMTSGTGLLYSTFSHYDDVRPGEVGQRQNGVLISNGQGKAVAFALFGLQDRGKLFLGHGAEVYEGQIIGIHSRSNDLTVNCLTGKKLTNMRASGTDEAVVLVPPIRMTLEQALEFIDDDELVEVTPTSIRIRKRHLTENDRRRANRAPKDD
# BipA (TypA or YihK) [2] = target: T1, BipA (TypA or YihK); assay: as above; assay type: binding
smiles,measurement,setting,value
Nc1nc2c(ncn2[C@@H]2O[C@H](COP(=O)(O)OP(=O)(O)O)[C@@H](O)[C@H]2O)c(=O)[nH]1 [GDP],Kd,BipA (TypA or YihK) [1],14.5 µM
"Nc1nc2c(ncn2[C@@H]2O[C@H](COP(=O)(O)OP(=O)(O)O)[C@@H](OP(=O)(O)OP(=O)(O)O)[C@H]2O)c(=O)[nH]1 [ppGpp, guanosine-3′, 5′-bis pyrophosphate]",Kd,BipA (TypA or YihK) [2],41.7 µM
